# In patent publication US20060148023A1, “Affinity labeling of serine proteases for simultaneous detection of multiple serine protease activity levels” (priority 2001, published 2006):
# Key:
# Assay type in all cases: cell-based
# Conditions in all cases: for FLCK RFU: green, ex 488 nm/em 535 nm; for FLCK RFU / SFCK RFU: average of 4 wells; for SFCK RFU: red, ex 590 nm/em 620 nm
# [1] = test system: HL-60 cells; assay: FLISP staining of HL-60 cells, fluorescence plate reader
# Experimental: (§1) Preparation of reagents: Fluorescent inhibitors of serine proteases (FLISP) reagents, 5(6)-Carboxyfluoresceinyl-L-phenylalanylchloromethyl ketone (FFCK), 5(6)-carboxyfluoresceinyl-L-leucylchloromethyl ketone (FLCK), Sulforhodaminyl 101 -L-phenylalanylchloromethyl ketone (SFCK) and Sulforhodaminyl 101 -L-leucylchloromethyl ketone (SLCK) are dissolved initially in dimethyl sulfoxide (DMSO; Sigma) to yield a 10 mM concentration. Aliquots are made from this stock solution and stored frozen at −20° C. protected from light. The reagent stock of the FLCK is then diluted directly into the cell culture media to give a 1× working reagent concentration of 20 μM and the reagent stock of the SFCK is then diluted directly into the cell culture media to give a 1× working reagent concentration of 5 μM. Dilution of the reagent into aqueous (cell culture) media is done just prior to cell exposure to preserve the labile chloromethyl ketone reactivity of FLISP reagent.
# (§2) Cells: Jurkat, HL-60 and U937 cells were obtained from American Type Culture Collection (ATCC; Rockville, Md.). They were cultured in 25 mL FALCON flasks (Becton Dickinson Co., Franklin Lakes, N.J.) using RPMI 1640 supplemented with 10% fetal calf serum, 100 units/mL penicillin, […] and 2 mM L-glutamine (all from Gibco/BRL Life Technologies, Inc., Grand Island, N.Y.) in a humidified incubator set to maintain 37.5° C. and 5 % CO2. At the onset of experiments, the cells were at an exponential and asynchronous growth phase with fewer than 5×10^5 cells per/mL in culture. To induce apoptosis the cells were treated with 0.15 μM DNA topoisomerase I inhibitor camptothecin (CPT; Sigma Chemical Co., St. Louis, Mo.) for 3 hours.
# (§3) Cell staining and evaluation by fluorescence plate reader: The Jurkat, HL-60 and U937 cells from the untreated or CPT treated cultures were centrifuged (200 g, 5 min) and resuspended in PBS at approximately 10^6 cells per 5 ml volume. FLISP staining solutions were prepared by diluting 10 μL of a green 10 mM FLISP reagent stock solution (FLCK) and 2.5 μL of a red 10 mM FLISP reagent stock solution (SFCK) into 5 mL of culture medium yielding a final green FLISP concentration of 20 μM and a final red FLISP concentration of 5 μM. When detecting multiple serine proteases use different CMK labeled peptides i.e. FLCK and SFCK or FFCK and SLCK. The FLISP staining solution was removed by washing the cells in wash buffer (0.5% BSA in PBS +0.05% NaN3, pH 7.4) and centrifuging for 5 minutes at 200 g. The washing step was repeated two more times with fresh wash buffer. After the final wash the cells were resuspended in 5 mL wash buffer and 100 μL per were added to a 96 well black microtiter plate (4 wells were used for each sample). Green and red fluorescence were measured simultaneously on a Spectra MAX Gemini XS fluorescence plate reader (Molecular Devices). Green cell fluorescence (FLCK) was then measured using a 488 nm excitation, 535 nm emission with a 515 nm cutoff. Red cell fluorescence (SFCK) was then measured using a 590 nm excitation, 620 emission with a 610 nm cutoff.
# [2] = test system: Jurkat cells; assay: FLISP staining of Jurkat cells, fluorescence plate reader
# Experimental: as §1, §2, §3
# [3] = test system: U937 cells; assay: FLISP staining of U937 cells, fluorescence plate reader
# Experimental: as §1, §2, §3
Molecule,"FLCK Ratio of I/NI ([1]; HL-60, induced/non-induced, 20 μM)","FLCK RFU ([1]; HL-60 I (induced, apoptotic; 0.15 μM CPT 3 h), 20 μM)","FLCK RFU ([1]; HL-60 NI (non-induced), 20 μM)","FLCK RFU ([2]; Jurkat I (induced, apoptotic; 0.15 μM CPT 3 h), 20 μM)","FLCK RFU ([2]; Jurkat NI (non-induced), 20 μM)","FLCK Ratio of I/NI ([2]; Jurkat, induced/non-induced, 20 μM)","FLCK Ratio of I/NI ([3]; U937, induced/non-induced, 20 μM)","FLCK RFU ([3]; U937 I (induced, apoptotic; 0.15 μM CPT 3 h), 20 μM)","FLCK RFU ([3]; U937 NI (non-induced), 20 μM)","SFCK Ratio of I/NI ([1]; HL-60, induced/non-induced, 5 μM)","SFCK RFU ([1]; HL-60 I (induced, apoptotic; 0.15 μM CPT 3 h), 5 μM)","SFCK RFU ([1]; HL-60 NI (non-induced), 5 μM)","SFCK RFU ([2]; Jurkat I (induced, apoptotic; 0.15 μM CPT 3 h), 5 μM)","SFCK RFU ([2]; Jurkat NI (non-induced), 5 μM)","SFCK Ratio of I/NI ([2]; Jurkat, induced/non-induced, 5 μM)","SFCK Ratio of I/NI ([3]; U937, induced/non-induced, 5 μM)","SFCK RFU ([3]; U937 I (induced, apoptotic; 0.15 μM CPT 3 h), 5 μM)","SFCK RFU ([3]; U937 NI (non-induced), 5 μM)"
5(6)-carboxyfluoresceinyl-L-leucylchloromethyl ketone [FLCK],1.59,7.552 RFU,4.748 RFU,13.291 RFU,3.702 RFU,3.59,3.70,8.208 RFU,2.218 RFU,,,,,,,,,
"CCN(CC)c1ccc2c(-c3ccc(S(=O)(=O)NC(Cc4ccccc4)C(=O)CCl)cc3S(=O)(=O)[O-])c3ccc(=[N+](CC)CC)cc-3oc2c1 [SFCK, Sulforhodaminyl-L-phenylalanylchloromethyl ketone]",,,,,,,,,,1.28,49.045 RFU,38.301 RFU,74.348 RFU,30.596 RFU,2.43,1.82,44.245 RFU,24.341 RFU
